Source: PubChem BioAssay (NCI)
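Following 48 hours of exposure in 96-well plates, responses at five concentrations were used to interpolate endpoints linearly. Here, GI50 denotes the concentration required for 50% inhibition of growth. TGI denotes the concentration required for complete inhibition of growth.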

Experiments:
Assay in all cases: NCI-60 cell line screen, 48 h
786-0 renal = tested on: 786-0 renal
A549 NSCLC = tested on: A549 NSCLC
ACHN renal = tested on: ACHN renal
BT-549 breast = tested on: BT-549 breast
CAKI-1 renal = tested on: CAKI-1 renal
CCRF-CEM leukemia = tested on: CCRF-CEM leukemia
COLO 205 colon = tested on: COLO 205 colon
EKVX NSCLC = tested on: EKVX NSCLC
HCC-2998 colon = tested on: HCC-2998 colon
HCT-116 colon = tested on: HCT-116 colon
HCT-15 colon = tested on: HCT-15 colon
HL-60(TB) leukemia = tested on: HL-60(TB) leukemia
HOP-62 NSCLC = tested on: HOP-62 NSCLC
HOP-92 NSCLC = tested on: HOP-92 NSCLC
HS 578T breast = tested on: HS 578T breast
HT29 colon = tested on: HT29 colon
IGROV1 ovarian = tested on: IGROV1 ovarian
K-562 leukemia = tested on: K-562 leukemia
KM12 colon = tested on: KM12 colon
M14 melanoma = tested on: M14 melanoma
MALME-3M melanoma = tested on: MALME-3M melanoma
MCF7 breast = tested on: MCF7 breast
MDA-MB-231 breast = tested on: MDA-MB-231 breast
MDA-MB-435 = tested on: MDA-MB-435
MOLT-4 leukemia = tested on: MOLT-4 leukemia
NCI-H226 lung = tested on: NCI-H226 lung
NCI-H23 lung = tested on: NCI-H23 lung
NCI-H460 lung = tested on: NCI-H460 lung
NCI-H522 lung = tested on: NCI-H522 lung
NCI/ADR-RES ovarian = tested on: NCI/ADR-RES ovarian
OVCAR-3 ovarian = tested on: OVCAR-3 ovarian
OVCAR-5 ovarian = tested on: OVCAR-5 ovarian
OVCAR-8 ovarian = tested on: OVCAR-8 ovarian
PC-3 prostate = tested on: PC-3 prostate
RPMI-8226 leukemia = tested on: RPMI-8226 leukemia
RXF 393 renal = tested on: RXF 393 renal
SF-268 CNS = tested on: SF-268 CNS
SF-295 CNS = tested on: SF-295 CNS
SF-539 CNS = tested on: SF-539 CNS
SK-MEL-2 melanoma = tested on: SK-MEL-2 melanoma
SK-MEL-28 melanoma = tested on: SK-MEL-28 melanoma
SK-MEL-5 melanoma = tested on: SK-MEL-5 melanoma
SK-OV-3 ovarian = tested on: SK-OV-3 ovarian
SNB-19 CNS = tested on: SNB-19 CNS
SNB-75 CNS = tested on: SNB-75 CNS
SR leukemia = tested on: SR leukemia
SW-620 colon = tested on: SW-620 colon
TK-10 renal = tested on: TK-10 renal
U251 CNS = tested on: U251 CNS
UACC-257 melanoma = tested on: UACC-257 melanoma
UACC-62 melanoma = tested on: UACC-62 melanoma
UO-31 renal = tested on: UO-31 renal
A498 renal = tested on: A498 renal
DU-145 prostate = tested on: DU-145 prostate
LOX IMVI melanoma = tested on: LOX IMVI melanoma
OVCAR-4 ovarian = tested on: OVCAR-4 ovarian
SN12C renal = tested on: SN12C renal

Compound: O=S(=O)(O)c1ccc(N=Nc2ccc(N=Nc3c(O)ccc4ccccc34)c(S(=O)(=O)O)c2)cc1
- TGI (786-0 renal): > 100 µM
- TGI (A549 NSCLC): > 100 µM
- TGI (ACHN renal): > 100 µM
- TGI (BT-549 breast): > 100 µM
- TGI (CAKI-1 renal): > 100 µM
- TGI (CCRF-CEM leukemia): > 100 µM
- TGI (COLO 205 colon): > 100 µM
- TGI (EKVX NSCLC): > 100 µM
- TGI (HCC-2998 colon): > 100 µM
- TGI (HCT-116 colon): > 100 µM
- TGI (HCT-15 colon): > 100 µM
- TGI (HL-60(TB) leukemia): > 100 µM
- TGI (HOP-62 NSCLC): > 100 µM
- TGI (HOP-92 NSCLC): > 100 µM
- TGI (HS 578T breast): > 100 µM
- TGI (HT29 colon): > 100 µM
- TGI (IGROV1 ovarian): > 100 µM
- TGI (K-562 leukemia): > 100 µM
- TGI (KM12 colon): > 100 µM
- TGI (M14 melanoma): > 100 µM
- TGI (MALME-3M melanoma): > 100 µM
- TGI (MCF7 breast): > 100 µM
- TGI (MDA-MB-231 breast): > 100 µM
- TGI (MDA-MB-435): > 100 µM
- TGI (MOLT-4 leukemia): > 100 µM
- TGI (NCI-H226 lung): > 100 µM
- TGI (NCI-H23 lung): > 100 µM
- TGI (NCI-H460 lung): > 100 µM
- TGI (NCI-H522 lung): > 100 µM
- TGI (NCI/ADR-RES ovarian): > 100 µM
- TGI (OVCAR-3 ovarian): > 100 µM
- TGI (OVCAR-5 ovarian): > 100 µM
- TGI (OVCAR-8 ovarian): > 100 µM
- TGI (PC-3 prostate): > 100 µM
- TGI (RPMI-8226 leukemia): > 100 µM
- TGI (RXF 393 renal): > 100 µM
- TGI (SF-268 CNS): > 100 µM
- TGI (SF-295 CNS): > 100 µM
- TGI (SF-539 CNS): > 100 µM
- TGI (SK-MEL-2 melanoma): > 100 µM
- TGI (SK-MEL-28 melanoma): > 100 µM
- TGI (SK-MEL-5 melanoma): > 100 µM
- TGI (SK-OV-3 ovarian): > 100 µM
- TGI (SNB-19 CNS): > 100 µM
- TGI (SNB-75 CNS): > 100 µM
- TGI (SR leukemia): > 100 µM
- TGI (SW-620 colon): > 100 µM
- TGI (TK-10 renal): > 100 µM
- TGI (U251 CNS): > 100 µM
- TGI (UACC-257 melanoma): > 100 µM
- TGI (UACC-62 melanoma): > 100 µM
- TGI (UO-31 renal): > 100 µM

Compound: CCCN1C(=O)/C(=C/c2cccc(O)c2)SC1=Nc1ccc(OC)cc1
- GI50 (786-0 renal): 8.63 µM
- TGI (786-0 renal): 16.4 µM
- GI50 (A498 renal): 8.81 µM
- TGI (A498 renal): 16.5 µM
- GI50 (A549 NSCLC): 9.11 µM
- TGI (A549 NSCLC): 18.3 µM
- GI50 (ACHN renal): 8.08 µM
- TGI (ACHN renal): 15.3 µM
- GI50 (BT-549 breast): 8.08 µM
- TGI (BT-549 breast): 15.6 µM
- GI50 (CAKI-1 renal): 9.86 µM
- TGI (CAKI-1 renal): 20.5 µM
- GI50 (COLO 205 colon): 11.1 µM
- TGI (COLO 205 colon): 25.2 µM
- GI50 (DU-145 prostate): 7.93 µM
- TGI (DU-145 prostate): 15.3 µM
- GI50 (EKVX NSCLC): 9.5 µM
- TGI (EKVX NSCLC): 17.2 µM
- GI50 (HCT-116 colon): 7.35 µM
- TGI (HCT-116 colon): 13.9 µM
- GI50 (HCT-15 colon): 7.76 µM
- TGI (HCT-15 colon): 16.2 µM
- GI50 (HL-60(TB) leukemia): 4.09 µM
- TGI (HL-60(TB) leukemia): > 50 µM
- GI50 (HS 578T breast): 16.5 µM
- TGI (HS 578T breast): 34.1 µM
- GI50 (HT29 colon): 8.98 µM
- TGI (HT29 colon): 19.7 µM
- GI50 (IGROV1 ovarian): 29.5 µM
- TGI (IGROV1 ovarian): > 50 µM
- GI50 (K-562 leukemia): 2.8 µM
- TGI (K-562 leukemia): 22.3 µM
- GI50 (KM12 colon): 6.77 µM
- TGI (KM12 colon): 16.5 µM
- GI50 (LOX IMVI melanoma): 7.9 µM
- TGI (LOX IMVI melanoma): 15.2 µM
- GI50 (M14 melanoma): 12.9 µM
- TGI (M14 melanoma): 21.3 µM
- GI50 (MCF7 breast): 10.9 µM
- TGI (MCF7 breast): 29.2 µM
- GI50 (MDA-MB-231 breast): 7.86 µM
- TGI (MDA-MB-231 breast): 16 µM
- GI50 (MDA-MB-435): 10.8 µM
- TGI (MDA-MB-435): 22 µM
- GI50 (MOLT-4 leukemia): 4.7 µM
- TGI (MOLT-4 leukemia): > 50 µM
- GI50 (NCI-H226 lung): 13.3 µM
- TGI (NCI-H226 lung): 27.6 µM
- GI50 (NCI-H460 lung): 13.5 µM
- TGI (NCI-H460 lung): > 50 µM
- GI50 (NCI-H522 lung): 23.4 µM
- TGI (NCI-H522 lung): > 50 µM
- GI50 (OVCAR-3 ovarian): 10.2 µM
- TGI (OVCAR-3 ovarian): 21.1 µM
- GI50 (OVCAR-4 ovarian): 8.18 µM
- TGI (OVCAR-4 ovarian): 18.8 µM
- GI50 (OVCAR-5 ovarian): 7.94 µM
- TGI (OVCAR-5 ovarian): 14.8 µM
- GI50 (OVCAR-8 ovarian): 10.7 µM
- TGI (OVCAR-8 ovarian): 22.2 µM
- GI50 (PC-3 prostate): 6.59 µM
- TGI (PC-3 prostate): 13.2 µM
- GI50 (RPMI-8226 leukemia): 5.61 µM
- TGI (RPMI-8226 leukemia): 15.7 µM
- GI50 (RXF 393 renal): 9.3 µM
- TGI (RXF 393 renal): 19.3 µM
- GI50 (SF-268 CNS): 9.65 µM
- TGI (SF-268 CNS): 20.8 µM
- GI50 (SF-295 CNS): 11.5 µM
- TGI (SF-295 CNS): 23.3 µM
- GI50 (SF-539 CNS): 8.25 µM
- TGI (SF-539 CNS): 15.7 µM
- GI50 (SK-MEL-2 melanoma): 31.9 µM
- TGI (SK-MEL-2 melanoma): > 50 µM
- GI50 (SK-MEL-28 melanoma): 10.2 µM
- TGI (SK-MEL-28 melanoma): 20.2 µM
- GI50 (SK-MEL-5 melanoma): 7.28 µM
- TGI (SK-MEL-5 melanoma): 15.1 µM
- GI50 (SN12C renal): 9.17 µM
- TGI (SN12C renal): 17.5 µM
- GI50 (SNB-19 CNS): 9.5 µM
- TGI (SNB-19 CNS): 19.3 µM
- GI50 (SNB-75 CNS): 11.7 µM
- TGI (SNB-75 CNS): 22.8 µM
- GI50 (SR leukemia): 6.04 µM
- TGI (SR leukemia): > 50 µM
- GI50 (SW-620 colon): 9.78 µM
- TGI (SW-620 colon): 17.3 µM
- GI50 (TK-10 renal): 9.62 µM
- TGI (TK-10 renal): 19.5 µM
- GI50 (U251 CNS): 7.87 µM
- TGI (U251 CNS): 14.6 µM
- GI50 (UACC-257 melanoma): 9.48 µM
- TGI (UACC-257 melanoma): 17.1 µM
- GI50 (UACC-62 melanoma): 10.3 µM
- TGI (UACC-62 melanoma): 18.1 µM
- GI50 (UO-31 renal): 13.5 µM
- TGI (UO-31 renal): > 50 µM
